Test results taken from patent US20240398805A1, “QUINAZOLINE DERIVED COMPOUNDS AS EGFR INHIBITORS AND THEIR USES THEREOF” (ACCUTAR BIOTECHNOLOGY INC., priority 2021, published 2024).

Experiments:
Assay type in all cases: cell-based
[1] = tested on: HCC827-SVD cells (human EGFR exon 20 insertion mutant D770_N771 insSVD); experiment: Cell growth inhibition (CellTiter-Glo, 3 days) in HCC827-SVD; conditions: 72 h, 3 days after administration
Outline: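 HCC827 cells carrying lentiviral codon-optimized EGFR D770_N771 insSVD, with endogenous EGFR knocked out by CRISPR (single clone), seeded at 5000 cells/well in RPMI with 10% FBS. Viability read by CellTiter-Glo luminescence.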

[2] = tested on: HCC827-ASV cells (human EGFR exon 20 insertion mutant A769_D770insASV); experiment: Cell growth inhibition (CellTiter-Glo, 3 days) in HCC827-ASV; conditions: 72 h, 3 days after administration
Outline: (§1)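 Growth inhibition used a CellTiter-Glo luminescence read-out after 3 days of compound exposure at various concentrations. Cells were plated the day before at 5000/well in RPMI plus 10% FBS. The lines are HCC827 transduced by lentivirus with codon-optimized EGFR ASV or ERBB2 YVMA exon 20 insertions.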

[3] = tested on: A431 cells; experiment: Cell growth inhibition (CellTiter-Glo, 3 days) in A431; conditions: Homo sapiens, A-431, 72 h, 3 days after administration
Outline: (§2)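 Growth inhibition was scored by CellTiter-Glo luminescence after 3-day compound exposure at various concentrations. Cells were plated at 5000/well the day before treatment: A431 in DMEM and HCC827 in RPMI, each with 10% FBS.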

[4] = tested on: HCC827-YVMA cells (human ERBB2 exon20 insertion mutant A775_G776ins YVMA); experiment: Cell growth inhibition (CellTiter-Glo, 3 days) in HCC827-YVMA; conditions: 72 h, 3 days after administration
Outline: as §1

[5] = tested on: HCC827 cells; experiment: Cell growth inhibition (CellTiter-Glo, 3 days) in HCC827; conditions: Homo sapiens, 72 h, 3 days after administration
Outline: as §2

| Structure (SMILES) | GI50 [1] [nM] | GI50 [2] [nM] | GI50 [3] [nM] | GI50 [4] [nM] | GI50 [5] [nM] |
| --- | --- | --- | --- | --- | --- |
| C=CC(=O)N1CCC(Nc2cc3c(Nc4ccc(Oc5nc(-c6ccnn6C)cs5)cc4F)ncnc3cc2OC)CC1 [Example 26, 1-(4-((4-((2-fluoro-4-((4-(1-methyl-1H-pyrazol-5-yl)thiazol-2-yl)oxy)phenyl)amino)-7-methoxyquinazolin-6-yl)amino)piperidin-1-yl)prop-2-en-1-one] | 30 to 60 | 30 to 60 | 100 to 300 | 30 to 60 | 60 to 100 |
| C=CC(=O)N1CCC(Nc2cc3c(Nc4ccc(Oc5ccnc(-c6ccc(C)nc6)c5)cc4F)ncnc3cc2OC)CC1 [Example 27, 1-(4-((4-((2-fluoro-4-((6′-methyl-[2,3′-bipyridin]-4-yl)oxy)phenyl)amino)-7-methoxyquinazolin-6-yl)amino)piperidin-1-yl)prop-2-en-1-one] | 60 to 100 | 30 to 60 | ≥ 1000 | 60 to 100 | 100 to 300 |
| C=CC(=O)N1CCC(Nc2cc3c(Nc4ccc(Oc5nc(-c6cnc(OCC)nc6)cs5)cc4F)ncnc3cc2OC)CC1 [Example 28, 1-(4-((4-((4-((4-(2-ethoxypyrimidin-5-yl)thiazol-2-yl)oxy)-2-fluorophenyl)amino)-7-methoxyquinazolin-6-yl)amino)piperidin-1-yl)prop-2-en-1-one] | 30 to 60 | < 30 | 100 to 300 | 30 to 60 | 100 to 300 |
| C=CC(=O)N1CCC(Nc2cc3c(Nc4ccc(Oc5ccn(-c6ccc(C)nn6)n5)cc4F)ncnc3cc2OC)CC1 [Example 29, 1-(4-((4-((2-fluoro-4-((1-(6-methylpyridazin-3-yl)-1H-pyrazol-3-yl)oxy)phenyl)amino)-7-methoxyquinazolin-6-yl)amino)piperidin-1-yl)prop-2-en-1-one] | < 30 | < 30 | ≥ 1000 | < 30 | < 30 |
| C=CC(=O)N1CCC(Nc2cc3c(Nc4ccc(Oc5ccn(-c6cc(OC)ncn6)n5)cc4F)ncnc3cc2OC)CC1 [Example 30, 1-(4-((4-((2-fluoro-4-((1-(6-methoxypyrimidin-4-yl)-1H-pyrazol-3-yl)oxy)phenyl)amino)-7-methoxyquinazolin-6-yl)amino)piperidin-1-yl)prop-2-en-1-one] | 30 to 60 | < 30 | 300 to 600 | < 30 | 100 to 300 |
| C=CC(=O)N1CCC(Nc2cc3c(Nc4ccc(Oc5nc(-c6cnc(C)nc6)cs5)cc4F)ncnc3cc2OC)CC1 [Example 32, 1-(4-((4-((2-fluoro-4-((4-(2-methylpyrimidin-5-yl)thiazol-2-yl)oxy)phenyl)amino)-7-methoxyquinazolin-6-yl)amino)piperidin-1-yl)prop-2-en-1-one] | < 30 | < 30 | 100 to 300 | < 30 | 60 to 100 |
| C=CC(=O)N1CCC(Nc2cc3c(Nc4ccc(Oc5ccn(-c6cnc(C)cn6)n5)cc4F)ncnc3cc2OC)CC1 [Example 33, 1-(4-((4-((2-fluoro-4-((1-(5-methylpyrazin-2-yl)-1H-pyrazol-3-yl)oxy)phenyl)amino)-7-methoxyquinazolin-6-yl)amino)piperidin-1-yl)prop-2-en-1-one] | 100 to 300 | 60 to 100 | 100 to 300 | 100 to 300 | 300 to 600 |
| C=CC(=O)N1CCC(Nc2cc3c(Nc4ccc(Oc5ccn(-c6cnc(C)c(C)c6)n5)cc4F)ncnc3cc2OC)CC1 [Example 36, 1-(4-((4-((4-((1-(5,6-dimethylpyridin-3-yl)-1H-pyrazol-3-yl)oxy)-2-fluorophenyl)amino)-7-methoxyquinazolin-6-yl)amino)piperidin-1-yl)prop-2-en-1-one] | 30 to 60 | 60 to 100 | 30 to 60 | 60 to 100 | 60 to 100 |
| C=CC(=O)N1CCC(Nc2cc3c(Nc4ccc(Oc5ccn(-c6cnc(C)cc6C)n5)cc4F)ncnc3cc2OC)CC1 [Example 37, 1-(4-((4-((4-((1-(4,6-dimethylpyridin-3-yl)-1H-pyrazol-3-yl)oxy)-2-fluorophenyl)amino)-7-methoxyquinazolin-6-yl)amino)piperidin-1-yl)prop-2-en-1-one] | < 30 | < 30 | 300 to 600 | < 30 | 30 to 60 |
| C=CC(=O)N1CCC(Nc2cc3c(Nc4ccc(Oc5ccn(-c6cnc(C)c(OC)c6)n5)cc4F)ncnc3cc2OC)CC1 [Example 38, 1-(4-((4-((2-fluoro-4-((1-(5-methoxy-6-methylpyridin-3-yl)-1H-pyrazol-3-yl)oxy)phenyl)amino)-7-methoxyquinazolin-6-yl)amino)piperidin-1-yl)prop-2-en-1-one] | 30 to 60 | 30 to 60 | 30 to 60 | 30 to 60 | 100 to 300 |
| C=CC(=O)N1CCC(Nc2cc3c(Nc4ccc(Oc5ccnc(-n6cc(C)cn6)n5)cc4F)ncnc3cc2OC)CC1 [Example 39, 1-(4-((4-((2-fluoro-4-((2-(4-methyl-1H-pyrazol-1-yl)pyrimidin-4-yl)oxy)phenyl)amino)-7-methoxyquinazolin-6-yl)amino)piperidin-1-yl)prop-2-en-1-one] | < 30 | < 30 | 300 to 600 | < 30 | 60 to 100 |
| C=CC(=O)N1CCC(Nc2cc3c(Nc4ccc(Oc5ccnc(-c6cncs6)c5)cc4F)ncnc3cc2OC)CC1 [Example 42, 1-(4-((4-((2-fluoro-4-((2-(thiazol-5-yl)pyridin-4-yl)oxy)phenyl)amino)-7-methoxyquinazolin-6-yl)amino)piperidin-1-yl)prop-2-en-1-one] | 600 to 1000 | 300 to 600 | ≥ 1000 | 600 to 1000 | ≥ 1000 |
| C=CC(=O)N1CCC(Nc2cc3c(Nc4ccc(Oc5ccnc(-c6nccs6)c5)cc4F)ncnc3cc2OC)CC1 [Example 43, 1-(4-((4-((2-fluoro-4-((2-(thiazol-2-yl)pyridin-4-yl)oxy)phenyl)amino)-7-methoxyquinazolin-6-yl)amino)piperidin-1-yl)prop-2-en-1-one] | < 30 | < 30 | 300 to 600 | < 30 | 60 to 100 |
| C=CC(=O)N1CCC(Nc2cc3c(Nc4ccc(Oc5ccnc(-c6ccn[nH]6)c5)cc4F)ncnc3cc2OC)CC1 [Example 45, 1-(4-((4-((4-((2-(1H-pyrazol-5-yl)pyridin-4-yl)oxy)-2-fluorophenyl)amino)-7-methoxyquinazolin-6-yl)amino)piperidin-1-yl)prop-2-en-1-one] | 60 to 100 | < 30 | 300 to 600 | 60 to 100 | 100 to 300 |
| C=CC(=O)N1CCC(Nc2cc3c(Nc4ccc(Oc5ccn(-c6ccnc(OC)n6)n5)cc4F)ncnc3cc2OC)CC1 [Example 47, 1-(4-((4-((2-fluoro-4-((1-(2-methoxypyrimidin-4-yl)-1H-pyrazol-3-yl)oxy)phenyl)amino)-7-methoxyquinazolin-6-yl)amino)piperidin-1-yl)prop-2-en-1-one] | 30 to 60 | < 30 | 300 to 600 | < 30 | 30 to 60 |
| C=CC(=O)N1CCC(Nc2cc3c(Nc4ccc(Oc5ccn(-c6ccc(N(C)C)nn6)n5)cc4F)ncnc3cc2OC)CC1 [Example 48, 1-(4-((4-((4-((1-(6-(dimethylamino)pyridazin-3-yl)-1H-pyrazol-3-yl)oxy)-2-fluorophenyl)amino)-7-methoxyquinazolin-6-yl)amino)piperidin-1-yl)prop-2-en-1-one] | 30 to 60 | 30 to 60 | 60 to 100 | 30 to 60 | 60 to 100 |
| C=CC(=O)N1CCC(Nc2cc3c(Nc4ccc(Oc5ccn(-c6ccc(OC)nn6)n5)cc4F)ncnc3cc2OC)CC1 [Example 50, 1-(4-((4-((2-fluoro-4-((1-(6-methoxypyridazin-3-yl)-1H-pyrazol-3-yl)oxy)phenyl)amino)-7-methoxyquinazolin-6-yl)amino)piperidin-1-yl)prop-2-en-1-one] | 30 to 60 | 30 to 60 | 100 to 300 | 30 to 60 | 60 to 100 |
| C=CC(=O)N1CCC(Nc2cc3c(Nc4ccc(Oc5nc(-c6cnc(OC)nc6)cs5)cc4F)ncnc3cc2OC)CC1 [Example 53, 1-(4-((4-((2-fluoro-4-((4-(2-methoxypyrimidin-5-yl)thiazol-2-yl)oxy)phenyl)amino)-7-methoxyquinazolin-6-yl)amino)piperidin-1-yl)prop-2-en-1-one] | < 30 | < 30 | 100 to 300 | < 30 | 30 to 60 |
| C=CC(=O)N1CCC(Nc2cc3c(Nc4ccc(Oc5ccn(-c6cnc(OC)nc6)n5)c(F)c4)ncnc3cc2OC)CC1 [Example 54, 1-(4-((4-((3-fluoro-4-((1-(2-methoxypyrimidin-5-yl)-1H-pyrazol-3-yl)oxy)phenyl)amino)-7-methoxyquinazolin-6-yl)amino)piperidin-1-yl)prop-2-en-1-one] | < 30 | < 30 | 100 to 300 | < 30 | < 30 |
